Experimental data: ChEMBL document CHEMBL5126675, “Recent Discovery of PARP7 Inhibitors as Anticancer Agents” (ACS Med Chem Lett, 2022)

Legend:
[1] = Oral bioavailability in mouse at 100 mg/kg administered as single dose; type: ADME, organism-based; details: in vivo
[2] = target: T1, Protein mono-ADP-ribosyltransferase TIPARP (Homo sapiens, UniProt Q7Z3E1); test: Inhibition of PARP7 (unknown origin) by HTRF assay
T1 sequence (Q7Z3E1 whole entry): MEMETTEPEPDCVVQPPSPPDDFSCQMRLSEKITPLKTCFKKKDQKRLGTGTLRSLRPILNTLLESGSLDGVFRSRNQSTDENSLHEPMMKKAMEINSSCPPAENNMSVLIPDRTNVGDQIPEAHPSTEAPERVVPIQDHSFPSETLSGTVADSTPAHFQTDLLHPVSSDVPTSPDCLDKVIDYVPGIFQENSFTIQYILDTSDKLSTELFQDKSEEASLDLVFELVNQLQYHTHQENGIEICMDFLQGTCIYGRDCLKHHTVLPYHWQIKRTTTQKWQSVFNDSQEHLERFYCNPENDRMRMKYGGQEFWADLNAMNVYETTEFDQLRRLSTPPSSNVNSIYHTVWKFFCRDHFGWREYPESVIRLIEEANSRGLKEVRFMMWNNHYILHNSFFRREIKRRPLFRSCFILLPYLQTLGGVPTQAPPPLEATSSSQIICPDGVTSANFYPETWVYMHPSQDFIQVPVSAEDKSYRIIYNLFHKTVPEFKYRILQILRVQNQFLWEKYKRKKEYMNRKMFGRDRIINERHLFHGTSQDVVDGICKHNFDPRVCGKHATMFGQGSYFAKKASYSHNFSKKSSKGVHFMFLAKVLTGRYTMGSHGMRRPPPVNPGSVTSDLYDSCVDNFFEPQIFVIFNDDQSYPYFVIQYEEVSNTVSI

C[C@@H](COCCC(=O)N1CCN2c3ncc(C(F)(F)F)cc3OC[C@@H]2C1)Oc1cn[nH]c(=O)c1C(F)(F)F
bioavailability [1]: 121%
IC50 [2]: 1.24 nM

C[C@@H](COCCC(=O)N1CCN2c3ncc(Cl)cc3OCC[C@@H]2C1)Oc1cn[nH]c(=O)c1C(F)(F)F
bioavailability [1]: 106%
IC50 [2]: 1.01 nM
